# Key:
# Test in all cases: binding to AX14596 beads (HeLa lysate, SILAC MS)
# BLMH = molecular target: T1, BLMH (Homo sapiens, UniProt Q13867)
# T1 construct: endogenous in cells; host or cells: HeLa S3
# T1 sequence (Q13867 1-455): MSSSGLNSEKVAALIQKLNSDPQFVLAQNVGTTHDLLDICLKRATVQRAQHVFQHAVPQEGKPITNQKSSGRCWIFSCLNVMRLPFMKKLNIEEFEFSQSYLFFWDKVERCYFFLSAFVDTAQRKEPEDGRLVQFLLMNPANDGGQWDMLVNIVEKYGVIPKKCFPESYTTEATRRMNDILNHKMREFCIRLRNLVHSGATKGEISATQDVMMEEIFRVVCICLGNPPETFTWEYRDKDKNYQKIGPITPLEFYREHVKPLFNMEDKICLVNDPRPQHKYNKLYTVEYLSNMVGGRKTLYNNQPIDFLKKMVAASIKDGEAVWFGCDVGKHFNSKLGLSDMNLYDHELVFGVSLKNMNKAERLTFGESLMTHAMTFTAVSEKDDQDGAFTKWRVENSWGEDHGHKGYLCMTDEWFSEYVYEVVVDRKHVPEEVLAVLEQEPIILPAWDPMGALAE
# Protocol: (§1) Differentially SILAC-encoded cell lysates were either incubated with the inhibitor beads displaying immobilized AX14596 or control resin devoid of ligand. In parallel, the supernatant from the first binding step was subjected to a second incubation with the AX14596 resin (FIG. 4). The resulting three elution fractions were combined, resolved by gel electrophoresis, proteolytically digested and the relative abundance of the retained proteins quantified. Proteins showing considerable binding to the control resin were identified as non-specific interactors and therefore not considered further. […] These target-specific ratios were similar in “label switch” experiments (FIGS. 6a and 6c). The binding equilibrium was determined in parallel control SILAC experiments as well as the excess of the immobilized compound over its cellular targets, the excess preferably being a molar excess (FIG. 7 and FIG. 8).
# (§2) Cysteine carbamidomethylation was set as a fixed modification and N-acetyl protein and oxidized methionine were allowed as variable modifications. Spectra that were determined to result from heavy labeled peptides in the pre-search detection of SILAC partners by MaxQuant were searched with the fixed modifications Lys^4, Lys^8, Arg^6 and Arg^10, whereas MS/MS spectra for which no SILAC state could be assigned before database searching were searched with Lys^4, Lys^8, Arg^6 and Arg^10 as variable modifications. The mass tolerance was set to 5 ppm for monoisotopic precursor ions and to 0.5 Da for MS/MS peaks. The minimum peptide length was set to 6 amino acids and up to three missed cleavages and three isotopically labeled amino acids were permitted per peptide. The accepted false discovery rate (FDR) was 1% for the proteins and peptides. The cut-off for the posterior error probability (PEP) of peptides was set to 10%. Peptide PEPs were determined by generating Mascot score and peptide-length-dependent histograms for both the forward and the reverse hits and then deriving the probability of a false identification for a given top-scoring peptide using Bayes' theorem. The PEPs of peptides belonging to the same proteins were then multiplied. Each peptide sequence was considered only once with the lowest PEP determined in case of multiple sequencing of the same isotopic pattern or of peptide species with different SILAC, charge or modification states. Proteins were then sorted according to their products of their peptide PEPs and included until a FDR of 1% was reached according to the fraction of reverse proteins contained in the protein list. In addition to the FDR threshold applied for protein identification, proteins were only included when they were identified with at least two peptides (of which one was required to be unique for the protein) and quantified if at least on quantifiable SILAC pair was associated with them. Outliers were not removed as protein ratios were calculated as the median instead of the average of all peptide ratios. For peptides shared among different identified proteins, SILAC ratios were only considered for the ratio of the protein identified with the highest number of unique peptides. Protein ratios for the different in vitro association experiments were corrected for the initial SILAC pooling ratio, which was determined from the median of protein ratios in pooled SILAC-encoded cell extracts.
# IGF2BP1 = IGF2BP1 (Homo sapiens, UniProt Q9NZI8)
# Chain of IGF2BP1 (Q9NZI8 whole entry): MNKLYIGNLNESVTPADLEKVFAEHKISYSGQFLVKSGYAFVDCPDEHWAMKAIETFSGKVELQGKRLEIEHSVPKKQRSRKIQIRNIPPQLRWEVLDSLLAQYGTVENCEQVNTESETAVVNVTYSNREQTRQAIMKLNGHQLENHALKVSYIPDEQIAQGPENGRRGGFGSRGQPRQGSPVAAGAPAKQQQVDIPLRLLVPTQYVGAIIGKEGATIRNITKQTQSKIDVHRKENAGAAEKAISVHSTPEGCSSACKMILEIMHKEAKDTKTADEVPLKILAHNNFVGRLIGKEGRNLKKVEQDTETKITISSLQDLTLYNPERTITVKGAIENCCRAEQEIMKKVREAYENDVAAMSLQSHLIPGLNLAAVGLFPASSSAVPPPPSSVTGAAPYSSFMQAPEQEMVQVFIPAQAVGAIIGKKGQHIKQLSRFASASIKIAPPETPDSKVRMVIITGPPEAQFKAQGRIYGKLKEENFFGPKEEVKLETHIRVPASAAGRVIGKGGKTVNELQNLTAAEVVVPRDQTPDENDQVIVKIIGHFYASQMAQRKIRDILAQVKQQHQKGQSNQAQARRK
# Protocol: as §1, §2
# YES (YES1) = molecular target: T2, YES (YES1) (Homo sapiens, UniProt P07947)
# T2 construct: endogenous in cells; host or cells: HeLa S3
# T2 sequence (P07947 whole entry): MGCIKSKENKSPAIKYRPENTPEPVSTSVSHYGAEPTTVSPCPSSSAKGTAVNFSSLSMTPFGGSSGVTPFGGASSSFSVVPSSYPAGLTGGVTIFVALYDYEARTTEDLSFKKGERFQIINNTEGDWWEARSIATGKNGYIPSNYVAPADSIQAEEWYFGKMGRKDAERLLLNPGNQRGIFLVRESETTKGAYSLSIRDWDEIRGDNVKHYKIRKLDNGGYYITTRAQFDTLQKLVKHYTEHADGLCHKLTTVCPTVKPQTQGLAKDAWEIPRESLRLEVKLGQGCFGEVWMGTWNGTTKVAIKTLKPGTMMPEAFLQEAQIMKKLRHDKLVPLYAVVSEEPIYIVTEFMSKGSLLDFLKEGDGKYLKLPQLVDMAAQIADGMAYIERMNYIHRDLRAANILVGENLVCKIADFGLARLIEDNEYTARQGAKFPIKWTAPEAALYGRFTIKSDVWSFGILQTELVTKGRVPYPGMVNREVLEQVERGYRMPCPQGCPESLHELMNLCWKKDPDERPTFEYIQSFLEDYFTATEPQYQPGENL
# Protocol: as §1, §2
# [1] = molecular target: p38a (MAPK14, IPI00002857) (Homo sapiens, UniProt Q16539)
# Chain of p38a (MAPK14, IPI00002857) (Q16539 whole entry): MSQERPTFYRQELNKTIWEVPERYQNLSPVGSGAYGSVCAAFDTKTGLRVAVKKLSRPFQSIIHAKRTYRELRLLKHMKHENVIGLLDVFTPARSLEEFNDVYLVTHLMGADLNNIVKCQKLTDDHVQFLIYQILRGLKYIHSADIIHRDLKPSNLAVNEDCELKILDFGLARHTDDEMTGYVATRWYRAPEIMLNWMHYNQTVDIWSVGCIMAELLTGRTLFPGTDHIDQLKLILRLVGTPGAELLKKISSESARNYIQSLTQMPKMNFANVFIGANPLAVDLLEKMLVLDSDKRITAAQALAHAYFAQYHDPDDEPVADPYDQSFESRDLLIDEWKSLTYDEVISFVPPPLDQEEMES
# Protocol: as §1, §2
smiles,measurement,setting,value
COc1cc2ncnc(Nc3ccc(F)c(Cl)c3)c2cc1OCCCN [AX14596],Ki,BLMH,53.6 µM
same,r (3 mg/1 mg lysate),BLMH,11.91
same,r (5 h/2.5 h inc. time),BLMH,1.31
same,rAVERAGE (2. inc/1. inc),BLMH,0.35
same,rAVERAGE (control/1. inc),BLMH,0.08
same,Ki,IGF2BP1,367 µM
same,rAVERAGE (2. inc/1. inc),IGF2BP1,0.79
same,rAVERAGE (control/1. inc),IGF2BP1,0.19
same,Ki,YES (YES1),658 µM
same,r (3 mg/1 mg lysate),YES (YES1),2.03
same,r (5 h/2.5 h inc. time),YES (YES1),0.98
same,rAVERAGE (2. inc/1. inc),YES (YES1),0.87
same,rAVERAGE (control/1. inc),YES (YES1),0.05
same,% BOUND,YES (YES1); bound to AX14596 beads,13%
same,Ki,[1],332 µM
same,r (3 mg/1 mg lysate),[1],2.74
same,r (5 h/2.5 h inc. time),[1],1.15
same,rAVERAGE (2. inc/1. inc),[1],0.77
same,rAVERAGE (control/1. inc),[1],0.06
